Laboratory results from patent US8580825B2, “Oxadiazole inhibitors of leukotriene production” (Boehringer Ingelheim International GmbH, priority 2010, dated 2013).

What was measured:
[1] = tested on: synthesis of LTB4 in human whole blood; experiment: human whole blood LTB4 production inhibition assay; type: cell-based; conditions: calcimycin stimulated, read-out: hWB LTB4 IC50
Outline: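 Whole-blood cellular format, heparinized human donors: 15 min compound pretreatment, then 30 min calcimycin stimulation (20 μM final), both at 37° C. Low-speed centrifugation yields plasma, in which LTB4 is read by homogeneous time-resolved fluorescence immunoassay.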

[2] = target: T1, recombinant human FLAP protein (Homo sapiens, UniProt P20292); experiment: FLAP binding assay (Scintillation Proximity Assay, displacement of [125I]L-691,831); conditions: read-out: FLAP SPA IC50
T1 construct: made in house; host or cells: Sf9 insect cells (100,000xg membrane fraction used)
T1 sequence (P20292 1-161): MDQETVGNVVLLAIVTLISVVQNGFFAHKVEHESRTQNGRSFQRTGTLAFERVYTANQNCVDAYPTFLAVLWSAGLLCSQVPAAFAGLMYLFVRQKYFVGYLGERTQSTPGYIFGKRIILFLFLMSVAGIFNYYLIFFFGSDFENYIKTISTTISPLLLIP
Outline: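 Scintillation proximity displacement of [125I]L-691,831 (0.08 nM) from membranes of sf9 cells expressing recombinant human FLAP (5 μg/well) on WGA SPA beads, pH 7.5 Tris buffer. Plates shaken 2 h before counting. Non-specific binding defined with 10 μM unlabelled L-691,831.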

IC50 [1] | IC50 [2] | SMILES
71 nM | 4.8 nM | CC(C)[C@](C)(c1ccc(-c2cnc(N)cn2)nc1)c1noc(-c2cnn(CC(=O)N(C)C)c2)n1 [Example 112, 2-[4-(3-{(R)-[6-(5-Amino-pyrazin-2-yl)-pyridin-3-yl]-1,2-dimethyl-propyl}-[1,2,4]oxadiazol-5-yl)-pyrazol-1-yl]-N,N-dimethyl-acetamide]
12 nM | 4 nM | CC(C)[C@](C)(c1ccc(-c2cnc(N)cn2)nc1)c1noc(-c2cnn(C3COC3)c2)n1 [Example 113, 5-(5-{(R)-1,2-Dimethyl-1-[5-(1-oxetan-3-yl-1H-pyrazol-4-yl)-[1,2,4]oxadiazol-3-yl]-propyl}-pyridin-2-yl)-pyrazin-2-ylamine]
850 nM | 52 nM | C[C@@](c1ccc(-c2ccc(N)nc2)nc1)(c1noc(-c2cnn(C(CO)CO)c2)n1)C1CC1 [Example 114, 2-(4-{3-[(R)-1-(6′-Amino-[2,3′]bipyridinyl-5-yl)-1-cyclopropyl-ethyl]-[1,2,4]oxadiazol-5-yl}-pyrazol-1-yl)-propane-1,3-diol]
110 nM | 24 nM | C[C@@](c1ccc(-c2ccc(N)nc2)nc1)(c1noc(-c2cnn(C3COC3)c2)n1)C1CC1 [Example 115, 5-{(R)-1-Cyclopropyl-1-[5-(1-oxetan-3-yl-1H-pyrazol-4-yl)-[1,2,4]oxadiazol-3-yl]-ethyl}-[2,3′]bipyridinyl-6′-ylamine]
2000 nM | 360 nM | C[C@](c1ccc(-c2ccc(N)nc2)nc1)(c1noc(-c2cnn(C3COC3)c2)n1)C1CC1 [Example 116, 5-{(S)-1-Cyclopropyl-1-[5-(1-oxetan-3-yl-1H-pyrazol-4-yl)-[1,2,4]oxadiazol-3-yl]-ethyl}-[2,3′]bipyridinyl-6′-ylamine]
86 nM | 8.7 nM | C[C@@](c1ccc(-c2cnc(N)nc2)nc1)(c1noc(-c2cn[nH]c2)n1)C1CC1 [Example 117, 5-(5-{(R)-1-Cyclopropyl-1-[5-(1H-pyrazol-4-yl)-[1,2,4]oxadiazol-3-yl]-ethyl}-pyridin-2-yl)-pyrimidin-2-ylamine]
210 nM | 47 nM | Cn1cc(-c2nc(C(C)(c3ccc(-c4ccc(N)nc4)nc3)C3CC3)no2)cn1 (centres unmarked) [Example 118, 5-{1-Cyclopropyl-1-[5-(1-methyl-1H-pyrazol-4-yl)-[1,2,4]oxadiazol-3-yl]-ethyl}-[2,3′]bipyridinyl-6′-ylamine]
2200 nM | 3.4 nM | CC(C)[C@](C)(c1ccc(-c2cnc(N)[nH]c2=O)nc1)c1noc(-c2cnn(CC(C)(C)O)c2)n1 [Example 119, 2-Amino-5-[5-((R)-1-{5-[1-(2-hydroxy-2-methyl-propyl)-1H-pyrazol-4-yl]-[1,2,4]oxadiazol-3-yl}-1,2-dimethyl-propyl)-pyridin-2-yl]-3H-pyrimidin-4-one]
300 nM | 42 nM | CN(C)CCn1cc(-c2nc(C(C)(c3ccc(-c4ccc(N)nc4)nc3)C3CC3)no2)cn1 (centres unmarked) [Example 120, 5-(1-Cyclopropyl-1-{5-[1-(2-dimethylamino-ethyl)-1H-pyrazol-4-yl]-[1,2,4]oxadiazol-3-yl}-ethyl)-[2,3′]bipyridinyl-6′-ylamine]
220 nM | 67 nM | CO[C@H]1CCN(C(=O)Cn2cc(-c3nc([C@@](C)(c4ccc(-c5cnc(N)nc5)nc4)C4CC4)no3)cn2)C1 [Example 121, 2-[4-(3-{(R)-1-[6-(2-Amino-pyrimidin-5-yl)-pyridin-3-yl]-1-cyclopropyl-ethyl}-[1,2,4]oxadiazol-5-yl)-pyrazol-1-yl]-1-((S)-3-methoxy-pyrrolidin-1-yl)-ethanone]
450 nM | 34 nM | CN(C)C(=O)Cn1cc(-c2nc([C@@](C)(c3ccc(-c4cnc(N)cn4)nc3)C3CC3)no2)cn1 [Example 122, 2-[4-(3-{(R)-1-[6-(5-Amino-pyrazin-2-yl)-pyridin-3-yl]-1-cyclopropyl-ethyl}-[1,2,4]oxadiazol-5-yl)-pyrazol-1-yl]-N,N-dimethyl-acetamide]
3300 nM | 300 nM | CN(C)C(=O)Cn1cc(-c2nc([C@](C)(c3ccc(-c4cnc(N)cn4)nc3)C3CC3)no2)cn1 [Example 123, 2-[4-(3-{(S)-1-[6-(5-Amino-pyrazin-2-yl)-pyridin-3-yl]-1-cyclopropyl-ethyl}-[1,2,4]oxadiazol-5-yl)-pyrazol-1-yl]-N,N-dimethyl-acetamide]
60 nM | 18 nM | CN(C)CCn1cc(-c2nc([C@@](C)(c3ccc(-c4cnc(N)cn4)nc3)C3CC3)no2)cn1 [Example 124, 5-[5-((R)-1-Cyclopropyl-1-{5-[1-(2-dimethylamino-ethyl)-1H-pyrazol-4-yl]-[1,2,4]oxadiazol-3-yl}-ethyl)-pyridin-2-yl]-pyrazin-2-ylamine]
370 nM | 120 nM | CN(C)CCn1cc(-c2nc([C@](C)(c3ccc(-c4cnc(N)cn4)nc3)C3CC3)no2)cn1 [Example 125, 5-[5-((S)-1-Cyclopropyl-1-{5-[1-(2-dimethylamino-ethyl)-1H-pyrazol-4-yl]-[1,2,4]oxadiazol-3-yl}-ethyl)-pyridin-2-yl]-pyrazin-2-ylamine]
25 nM | 8.8 nM | COCCn1cc(-c2nc([C@@](C)(c3ccc(-c4cnc(N)cn4)nc3)C3CC3)no2)cn1 [Example 126, 5-[5-((R)-1-Cyclopropyl-1-{5-[1-(2-methoxy-ethyl)-1H-pyrazol-4-yl]-[1,2,4]oxadiazol-3-yl}-ethyl)-pyridin-2-yl]-pyrazin-2-ylamine]

The remaining lines, values behind:

SMILES | IC50 [1] | IC50 [2]
CC(C)(O)Cn1cc(-c2nc([C@@](C)(c3ccc(-c4cnc(N)cn4)nc3)C3CC3)no2)cn1 [Example 100, 1-[4-(3-{(R)-1-[6-(5-Amino-pyrazin-2-yl)-pyridin-3-yl]-1-cyclopropyl-ethyl}-[1,2,4]oxadiazol-5-yl)-pyrazol-1-yl]-2-methyl-propan-2-ol] | 210 nM | 53 nM
CC(C)(O)Cn1cc(-c2nc([C@](C)(c3ccc(-c4cnc(N)cn4)nc3)C3CC3)no2)cn1 [Example 101, 1-[4-(3-{(S)-1-[6-(5-Amino-pyrazin-2-yl)-pyridin-3-yl]-1-cyclopropyl-ethyl}-[1,2,4]oxadiazol-5-yl)-pyrazol-1-yl]-2-methyl-propan-2-ol] | 990 nM | 280 nM
CC(C)(C)NC(=O)Cn1cc(-c2nc([C@@](C)(c3ccc(-c4cnc(N)nc4)nc3)C3CC3)no2)cn1 [Example 102, 2-[4-(3-{(R)-1-[6-(2-Amino-pyrimidin-5-yl)-pyridin-3-yl]-1-cyclopropyl-ethyl}-[1,2,4]oxadiazol-5-yl)-pyrazol-1-yl]-N-tert-butyl-acetamide] | 89 nM | 13 nM
COCCn1cc(-c2nc([C@@](C)(c3ccc(-c4cnc(N)cn4)nc3)C(C)C)no2)cn1 [Example 104, 5-[5-((R)-1-{5-[1-(2-Methoxy-ethyl)-1H-pyrazol-4-yl]-[1,2,4]oxadiazol-3-yl}-1,2-dimethyl-propyl)-pyridin-2-yl]-pyrazin-2-ylamine] | 17 nM | 5.7 nM
CC(C)[C@](C)(c1ccc(-c2cnc(N)cn2)nc1)c1noc(-c2cnc(N3CCNCC3)cn2)n1 [Example 105, 5-(5-{(R)-1,2-Dimethyl-1-[5-(3,4,5,6-tetrahydro-2H-[1,2′]bipyrazinyl-5′-yl)-[1,2,4]oxadiazol-3-yl]-propyl}-pyridin-2-yl)-pyrazin-2-ylamine] | 450 nM | 7.8 nM
CN(C(=O)Cn1cc(-c2nc([C@@](C)(c3ccc(-c4cnc(N)nc4)nc3)C3CC3)no2)cn1)C(C)(C)C [Example 106, 2-[4-(3-{(R)-1-[6-(2-Amino-pyrimidin-5-yl)-pyridin-3-yl]-1-cyclopropyl-ethyl}-[1,2,4]oxadiazol-5-yl)-pyrazol-1-yl]-N-tert-butyl-N-methyl-acetamide] | 30 nM | 10 nM
CO[C@@H]1CCN(C(=O)Cn2cc(-c3nc([C@@](C)(c4ccc(-c5cnc(N)nc5)nc4)C4CC4)no3)cn2)C1 [Example 107, 2-[4-(3-{(R)-1-[6-(2-Amino-pyrimidin-5-yl)-pyridin-3-yl]-1-cyclopropyl-ethyl}-[1,2,4]oxadiazol-5-yl)-pyrazol-1-yl]-1-((R)-3-methoxy-pyrrolidin-1-yl)-ethanone] | 220 nM | 72 nM
COCCn1cc(-c2nc([C@](C)(c3ccc(-c4ccc(N)nc4)nc3)C3CC3)no2)cn1 [Example 108, 5-((S)-1-Cyclopropyl-1-{5-[1-(2-methoxy-ethyl)-1H-pyrazol-4-yl]-[1,2,4]oxadiazol-3-yl}-ethyl)-[2,3′]bipyridinyl-6′-ylamine] | 2300 nM | 360 nM
CC(C)(O)Cn1cc(-c2nc([C@](C)(c3ccc(-c4ccc(N)nc4)nc3)C3CC3)no2)cn1 [Example 109, 1-(4-{3-[(S)-1-(6′-Amino-[2,3′]bipyridinyl-5-yl)-1-cyclopropyl-ethyl]-[1,2,4]oxadiazol-5-yl}-pyrazol-1-yl)-2-methyl-propan-2-ol] | 1100 nM | 350 nM
CC(C)[C@](C)(c1ccc(-c2cnc(N)cn2)nc1)c1noc(-c2cnn(CC(C)(C)O)c2)n1 [Example 110, 1-[4-(3-{(R)-1-[6-(5-Amino-pyrazin-2-yl)-pyridin-3-yl]-1,2-dimethyl-propyl}-[1,2,4]oxadiazol-5-yl)-pyrazol-1-yl]-2-methyl-propan-2-ol] | 31 nM | 5.9 nM
